“Also recorded” adds a separate entry of the source. Non-standard residues stand in square brackets, D forms with d. Residues, ends and D or L forms follow the SMILES beside them. *: point of attachment. Palmitoyl = CCCCCCCCCCCCCCCC(=O)*; AEEA = NCCOCCOCC(=O)O
Tests used:
[1] = system: primary human lymphatic endothelia cells (HLEC); assay: HLEC survival in medium with 0.1% FBS, MTS assay; conditions: 30, 100, and 300 nM, 72 hrs
Method: The cells were cultured for 72 hrs, and cell viability was assayed with the MTS assay (Promega).

[2] = biological target: CLR/RAMP1 receptor (Homo sapiens, UniProt O60894+Q16602); conditions: for receptor specificity of antagonist: CLR/RAMP1 versus CLR/RAMP2
Method: (§1) Using a receptor activation assay, the dose-dependent stimulatory response of peptide agonists of the present invention on a CLR/RAMP1 receptor, a CLR/RAMP2, or a CLR/RAMP3 receptor complex was determined. A cell line carrying the recombinant CLR/RAMP1, CLR/RAMP2, or a CLR/RAMP3 receptor was employed in the assay. Peptide agonist activities were tested, in duplicate, at 10 different concentrations, starting with 1.0 μM and serially diluted 3-fold, in DMSO. […] The CLR/RAMP1 cAMP, CLR/RAMP2 arrestin assays, and CLR/RAMP3 cAMP (DiscoveRx, Fremont, Calif.) were used.
(§2) For the analysis of antagonistic activity, the synthetic analogs were pre-incubated with the cells before adding the reference ligand at its EC80.

[3] = biological target: CLR/RAMP3 receptor (Homo sapiens, UniProt O60896+Q16602); assay: cell-based
Chain of CLR/RAMP3 receptor (Q16602 23-461): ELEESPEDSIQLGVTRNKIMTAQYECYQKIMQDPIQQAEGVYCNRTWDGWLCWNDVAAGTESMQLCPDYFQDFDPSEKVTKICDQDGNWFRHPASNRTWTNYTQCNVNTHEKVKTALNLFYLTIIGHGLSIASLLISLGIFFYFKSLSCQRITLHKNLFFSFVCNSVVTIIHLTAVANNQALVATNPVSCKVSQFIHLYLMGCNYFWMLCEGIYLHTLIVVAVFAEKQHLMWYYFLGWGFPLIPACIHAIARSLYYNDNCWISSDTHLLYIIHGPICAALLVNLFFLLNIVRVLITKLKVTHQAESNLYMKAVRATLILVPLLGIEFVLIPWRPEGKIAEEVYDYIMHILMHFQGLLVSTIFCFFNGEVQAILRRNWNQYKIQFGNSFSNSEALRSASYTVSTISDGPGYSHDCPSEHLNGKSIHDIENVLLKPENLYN
Chain of CLR/RAMP3 receptor (O60896 24-148): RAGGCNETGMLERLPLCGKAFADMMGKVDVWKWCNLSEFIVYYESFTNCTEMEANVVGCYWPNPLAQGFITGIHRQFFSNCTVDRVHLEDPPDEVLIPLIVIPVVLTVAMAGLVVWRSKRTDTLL
Method: as §1, §2

Chain of CLR/RAMP1 receptor (Q16602 23-461): as the sequence (Q16602 23-461) above
Chain of CLR/RAMP1 receptor (O60894 27-148): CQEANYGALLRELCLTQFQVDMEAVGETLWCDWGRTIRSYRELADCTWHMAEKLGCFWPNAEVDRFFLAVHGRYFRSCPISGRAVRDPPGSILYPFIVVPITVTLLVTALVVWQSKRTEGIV

| Structure (SMILES) | IC50 [3] [nM] | receptor specificity of antagonist [2] | also measured |
| --- | --- | --- | --- |
| CSCC[C@H](NC(=O)[C@H](CC(C)C)NC(=O)[C@H](CCC(N)=O)NC(=O)[C@H](Cc1c[nH]c2ccccc12)NC(=O)[C@H](CC(C)C)NC(=O)[C@H](CCCNC(=N)N)NC(=O)[C@H](Cc1c[nH]cn1)NC(=O)[C@H](CO)NC(=O)[C@H](CC(C)C)NC(=O)[C@H](CC(N)=O)NC(=O)[C@H](CCC(N)=O)NC(=O)[C@@H](NC(=O)[C@H](CCC(N)=O)NC(=O)[C@@H]1CSSC[C@H](NC(=O)CNC(=O)[C@@H](NC(C)=O)C(C)C)C(=O)N[C@@H](C(C)C)C(=O)N[C@@H](CC(C)C)C(=O)NCC(=O)N[C@@H]([C@@H](C)O)C(=O)N1)C(C)C)C(=O)NCC(=O)N1CCC[C@H]1C(=O)N[C@@H](C)C(=O)NCC(=O)N[C@@H](CCCNC(=N)N)C(=O)N[C@@H](CCC(N)=O)C(=O)N[C@@H](CC(=O)O)C(=O)N[C@@H](CO)C(=O)N[C@@H](C)C(=O)N1CCC[C@H]1C(=O)N[C@H](C(=O)N[C@@H](CC(=O)O)C(=O)N1CCC[C@H]1C(=O)N[C@@H](CO)C(=O)N[C@@H](CO)C(=O)N1CCC[C@H]1C(=O)N[C@@H](Cc1c[nH]cn1)C(=O)N[C@@H](CO)C(=O)N[C@@H](Cc1ccc(O)cc1)C(N)=O)C(C)C [SEQ ID NO: 52, reference compound] | – | – | HLEC survival (in words) [1]: minimal effects; also recorded: negligible effects |
| CC[C@H](C)[C@H](NC(=O)[C@H](CCC(N)=O)NC(=O)[C@H](Cc1c[nH]cn1)NC(=O)[C@H](C)NC(=O)[C@H](CC(C)C)NC(=O)[C@H](CCCCN)NC(=O)[C@H](CCC(N)=O)NC(=O)[C@@H](NC(=O)[C@@H](NC(=O)[C@@H]1CSSC[C@H](NC(=O)CNC(=O)[C@H](CCCCN)NC(C)=O)C(=O)N[C@@H](CCCNC(=N)N)C(=O)N[C@@H](Cc2ccccc2)C(=O)NCC(=O)N[C@@H]([C@@H](C)O)C(=O)N1)[C@@H](C)O)C(C)C)C(=O)N[C@@H](Cc1ccc(O)cc1)C(=O)N[C@@H](CCC(N)=O)C(=O)N[C@@H](Cc1ccccc1)C(=O)N[C@H](C(=O)N[C@@H](CC(=O)O)C(=O)N[C@@H](CCCCN)C(=O)N[C@@H](CC(=O)O)C(=O)N[C@@H](CCCCN)C(=O)N[C@@H](CC(=O)O)C(=O)N[C@@H](CC(N)=O)C(=O)N[C@@H](CO)C(=O)N[C@@H](C)C(=O)N1CCC[C@H]1C(=O)N[C@H](C(=O)N[C@@H](CC(=O)O)C(=O)N1CCC[C@H]1C(=O)N[C@@H](CO)C(=O)N[C@@H](CO)C(=O)N1CCC[C@H]1C(=O)N[C@@H](Cc1c[nH]cn1)C(=O)N[C@@H](CO)C(=O)N[C@@H](Cc1ccc(O)cc1)C(N)=O)C(C)C)[C@@H](C)O [SEQ ID NO: 59] | – | – | HLEC survival (in words) [1]: minimal effects; also recorded: negligible effects |
| CC[C@H](C)[C@H](NC(=O)[C@H](CCC(N)=O)NC(=O)[C@H](Cc1c[nH]cn1)NC(=O)[C@H](C)NC(=O)[C@H](CC(C)C)NC(=O)[C@H](CCCCN)NC(=O)[C@H](CCC(N)=O)NC(=O)[C@@H](NC(=O)[C@@H](NC(C)=O)[C@@H](C)O)C(C)C)C(=O)N[C@@H](Cc1ccc(O)cc1)C(=O)N[C@@H](CCC(N)=O)C(=O)N[C@@H](Cc1ccccc1)C(=O)N[C@H](C(=O)N[C@@H](CC(=O)O)C(=O)N[C@@H](CCCCN)C(=O)N[C@@H](CC(=O)O)C(=O)N[C@@H](CCCCN)C(=O)N[C@@H](CC(=O)O)C(=O)N[C@@H](CC(N)=O)C(=O)N[C@@H](CO)C(=O)N[C@@H](C)C(=O)N1CCC[C@H]1C(=O)N[C@H](C(=O)N[C@@H](CC(=O)O)C(=O)N1CCC[C@H]1C(=O)N[C@@H](CO)C(=O)N[C@@H](CO)C(=O)N1CCC[C@H]1C(=O)N[C@@H](Cc1c[nH]cn1)C(=O)N[C@@H](CO)C(=O)N[C@@H](Cc1ccc(O)cc1)C(N)=O)C(C)C)[C@@H](C)O [SEQ ID NO: 76] | – | – | antagonistic activity toward CLR/RAMP1 and/or CLR/RAMP2 receptor signaling (in words) ([2]; statement covers CGRP-stimulated CLR/RAMP1 and ADM-stimulated CLR/RAMP2): mildly improved antagonistic activity |
| CCCCCCCCCCCCCCCC(=O)NCCCC[C@H](NC(=O)COCCOCCN)C(=O)N[C@H](C(=O)N[C@@H](CCC(N)=O)C(=O)N[C@@H](CCCCN)C(=O)N[C@@H](CC(C)C)C(=O)N[C@@H](C)C(=O)N[C@@H](Cc1c[nH]cn1)C(=O)N[C@@H](CCC(N)=O)C(=O)N[C@H](C(=O)N[C@@H](Cc1ccc(O)cc1)C(=O)N[C@@H](CCC(N)=O)C(=O)N[C@@H](Cc1ccccc1)C(=O)N[C@H](C(=O)N[C@@H](CC(=O)O)C(=O)N[C@@H](CCCCN)C(=O)N[C@@H](CC(=O)O)C(=O)N[C@@H](CCCCN)C(=O)N[C@@H](CC(=O)O)C(=O)N[C@@H](CC(N)=O)C(=O)N[C@@H](CO)C(=O)N[C@@H](C)C(=O)N1CCC[C@H]1C(=O)N[C@H](C(=O)N[C@@H](CC(=O)O)C(=O)N1CCC[C@H]1C(=O)N[C@@H](CO)C(=O)N[C@@H](CO)C(=O)N1CCC[C@H]1C(=O)N[C@@H](Cc1c[nH]cn1)C(=O)N[C@@H](CO)C(=O)N[C@@H](Cc1ccc(O)cc1)C(N)=O)C(C)C)[C@@H](C)O)[C@@H](C)CC)C(C)C [SEQ ID NO: 78] (H-[AEEA]K(Palmitoyl)VQKLAHQIYQFTDKDKDNSAPVDPSSPHSY-NH2) | 0.8 to 9.2 | – | – |
| CCCCCCCCCCCCCCCC(=O)NCCCC[C@H](NC(=O)COCCOCCN)C(=O)N[C@H](C(=O)N[C@@H](CCC(N)=O)C(=O)N[C@@H](CCCCN)C(=O)N[C@@H](CC(C)C)C(=O)N[C@@H](C)C(=O)N[C@@H](Cc1c[nH]cn1)C(=O)N[C@@H](CCC(N)=O)C(=O)N[C@H](C(=O)N[C@@H](Cc1ccc(O)cc1)C(=O)N[C@@H](CCC(N)=O)C(=O)N[C@@H](Cc1ccccc1)C(=O)N[C@H](C(=O)N[C@@H](CC(=O)O)C(=O)N[C@@H](CCCCN)C(=O)N[C@@H](CC(=O)O)C(=O)N[C@@H](CO)C(=O)N[C@@H](C)C(=O)N1CCC[C@H]1C(=O)N[C@H](C(=O)N[C@@H](CC(=O)O)C(=O)N1CCC[C@H]1C(=O)N[C@@H](CO)C(=O)N[C@@H](CO)C(=O)N1CCC[C@H]1C(=O)N[C@@H](Cc1c[nH]cn1)C(=O)N[C@@H](CO)C(=O)N[C@@H](Cc1ccc(O)cc1)C(N)=O)C(C)C)[C@@H](C)O)[C@@H](C)CC)C(C)C [SEQ ID NO: 112] (H-[AEEA]K(Palmitoyl)VQKLAHQIYQFTDKDSAPVDPSSPHSY-NH2) | 0.8 to 9.2 | – | – |
| CCCCCCCCCCCCCCCC(=O)NCCCC[C@H](NC(=O)COCCOCCN)C(=O)N[C@H](C(=O)N[C@@H](CCC(N)=O)C(=O)N[C@@H](CCCCN)C(=O)N[C@@H](CC(C)C)C(=O)N[C@@H](C)C(=O)N[C@@H](Cc1c[nH]cn1)C(=O)N[C@@H](CCC(N)=O)C(=O)N[C@H](C(=O)N[C@@H](Cc1ccc(O)cc1)C(=O)N[C@@H](CO)C(=O)N[C@@H](C)C(=O)N1CCC[C@H]1C(=O)N[C@H](C(=O)N[C@@H](CC(=O)O)C(=O)N1CCC[C@H]1C(=O)N[C@@H](CO)C(=O)N[C@@H](CO)C(=O)N1CCC[C@H]1C(=O)N[C@@H](Cc1c[nH]cn1)C(=O)N[C@@H](CO)C(=O)N[C@@H](Cc1ccc(O)cc1)C(N)=O)C(C)C)[C@@H](C)CC)C(C)C [SEQ ID NO: 114] | 0.8 to 9.2 | CLR/RAMP1-specific | – |
| CCCCCCCCCCCCCCCC(=O)N[C@@H](CCCCN)C(=O)N[C@H](C(=O)N[C@@H](CCC(N)=O)C(=O)N[C@@H](CC(N)=O)C(=O)N[C@@H](CC(C)C)C(=O)N[C@@H](CO)C(=O)N[C@@H](Cc1c[nH]cn1)C(=O)N[C@@H](CCCNC(=N)N)C(=O)N[C@@H](CC(C)C)C(=O)N[C@@H](Cc1c[nH]c2ccccc12)C(=O)N[C@@H](CCC(N)=O)C(=O)N[C@@H](CC(C)C)C(=O)N[C@@H](CCSC)C(=O)NCC(=O)N1CCC[C@H]1C(=O)N[C@@H](C)C(=O)NCC(=O)N[C@@H](CO)C(=O)N[C@@H](C)C(=O)N1CCC[C@H]1C(=O)N[C@H](C(=O)N[C@@H](CC(=O)O)C(=O)N1CCC[C@H]1C(=O)N[C@@H](CO)C(=O)N[C@@H](CO)C(=O)N1CCC[C@H]1C(=O)N[C@@H](Cc1c[nH]cn1)C(=O)N[C@@H](CO)C(=O)N[C@@H](Cc1ccc(O)cc1)C(N)=O)C(C)C)C(C)C [SEQ ID NO: 120] | – | CLR/RAMP1-specific | – |
| CCCCCCCCCCCCCCCC(=O)N[C@@H](CCCCN)C(=O)N[C@H](C(=O)N[C@@H](CCC(N)=O)C(=O)N[C@@H](CCCCN)C(=O)N[C@@H](CC(C)C)C(=O)N[C@@H](C)C(=O)N[C@@H](Cc1c[nH]cn1)C(=O)N[C@@H](CCC(N)=O)C(=O)N[C@H](C(=O)N[C@@H](CO)C(=O)N[C@@H](C)C(=O)N1CCC[C@H]1C(=O)N[C@H](C(=O)N[C@@H](CC(=O)O)C(=O)N1CCC[C@H]1C(=O)N[C@@H](CO)C(=O)N[C@@H](CO)C(=O)N1CCC[C@H]1C(=O)N[C@@H](Cc1c[nH]cn1)C(=O)N[C@@H](CO)C(=O)N[C@@H](Cc1ccc(O)cc1)C(N)=O)C(C)C)[C@@H](C)CC)C(C)C [SEQ ID NO: 123] | 0.8 to 9.2 | – | – |
| CCCCCCCCCCCCCCCC(=O)N[C@@H](CCCCN)C(=O)N[C@H](C(=O)N[C@@H](CCC(N)=O)C(=O)N[C@@H](CCCCN)C(=O)N[C@@H](CC(C)C)C(=O)N[C@@H](C)C(=O)N[C@@H](Cc1c[nH]cn1)C(=O)N[C@@H](CCC(N)=O)C(=O)N[C@H](C(=O)N[C@@H](Cc1ccc(O)cc1)C(=O)N[C@@H](CCC(N)=O)C(=O)N[C@@H](Cc1ccccc1)C(=O)N[C@H](C(=O)N[C@@H](CC(=O)O)C(=O)N[C@@H](CCCCN)C(=O)N[C@@H](CO)C(=O)N[C@@H](C)C(=O)N1CCC[C@H]1C(=O)N[C@H](C(=O)N[C@@H](CC(=O)O)C(=O)N1CCC[C@H]1C(=O)N[C@@H](CO)C(=O)N[C@@H](CO)C(=O)N1CCC[C@H]1C(=O)N[C@@H](Cc1c[nH]cn1)C(=O)N[C@@H](CO)C(=O)N[C@@H](Cc1ccc(O)cc1)C(N)=O)C(C)C)[C@@H](C)O)[C@@H](C)CC)C(C)C [SEQ ID NO: 125] | – | pan-specific | – |
